Test results published in ChEMBL document CHEMBL3885861, “Open TG-GATES”.

Organism: Rattus norvegicus
Assay: Open TG-GATES - Regimen: Daily Repeat
Type: toxicity, organism-based, Sprague-Dawley
Set-up: regimen Daily Repeat, gender Male, age 6 weeks
Conditions: in vivo, po, 300 mg/kg, route gavage, dose level High; for Bas / Eos / Fbg / Hb / Ht / Lym / MCH / MCV / Mono / Neu / PT / Plat / RBC / Ret / WBC / APTT: tissue Blood; for KIDNEY_L / KIDNEY_R / KIDNEY_TOTAL: tissue Kidney; for LIVER: tissue Liver; for ALP / ALT / AST / BUN / CRE / Ca / Cl / DBIL / GLC / IP / K / LDH / Na / PL / RALB / TBIL / TC / TP / gamma-GTP: tissue Plasma

## NC(=O)N1c2ccccc2C=Cc2ccccc21 [CARBAMAZEPINE]
72 h, time 3 day
  Bas: 0%
  Eos: 1.2%
  Fbg: 203 mg/dL
  Hb: 13.7 g/dL
  Ht: 40.1%
  Lym: 83.6%
  MCH: 20.9 pg
  MCV: 61 fL
  Mono: 2.6%
  Neu: 11.4%
  PT: 11.8 s
  Plat: 131.3 x10_4/uL
  RBC: 657.8 x10_4/ul
  Ret: 3.6%
  WBC: 92.4 x10_2/uL
  KIDNEY_L: 1.1 g
  KIDNEY_R: 1 g
  KIDNEY_TOTAL: 2.1 g
  LIVER: 13.1 g
  ALP: 978.4 IU/L
  ALT: 40.2 IU/L
  AST: 57.2 IU/L
  BUN: 14 mg/dL
  CRE: 0.4 mg/dL
  Ca: 10.9 mg/dL
  Cl: 103.2 meq/L
  DBIL: 0.08 mg/dL
  GLC: 199.4 mg/dL
  IP: 6.8 mg/dL
  K: 3.4 meq/L
  LDH: 217.4 IU/L
  Na: 140.6 meq/L
  PL: 150.4 mg/dL
  RALB: 3.4 g/dL
  TBIL: 0.1 mg/dL
  TC: 79.2 mg/dL
  TP: 5.6 g/dL
  gamma-GTP: 1.2 IU/L
[…], time 7 day
  TERMINAL_BW: 253.9 g
  APTT: 21.5 s
  Bas: 0%
  Eos: 0.6%
  Fbg: 224.6 mg/dL
  Hb: 13.1 g/dL
  Ht: 38.8%
  Lym: 79.8%
  MCH: 20.5 pg
  MCV: 60.5 fL
  Mono: 2.4%
  Neu: 15.8%
  PT: 11.9 s
  Plat: 130.9 x10_4/uL
  RBC: 641.2 x10_4/ul
  Ret: 4.1%
  WBC: 127.4 x10_2/uL
  KIDNEY_L: 1.2 g
  KIDNEY_R: 1.1 g
  KIDNEY_TOTAL: 2.3 g
  LIVER: 14.2 g
  ALP: 803.4 IU/L
  ALT: 41.6 IU/L
  AST: 64.8 IU/L
  BUN: 15.4 mg/dL
  CRE: 0.4 mg/dL
  Ca: 10.7 mg/dL
  Cl: 101.8 meq/L
  DBIL: 0.098 mg/dL
  GLC: 212.6 mg/dL
  IP: 7 mg/dL
  K: 3.9 meq/L
  LDH: 261.2 IU/L
  Na: 139.6 meq/L
  PL: 174.4 mg/dL
  RALB: 3.6 g/dL
  TBIL: 0.1 mg/dL
  TC: 91.2 mg/dL
  TP: 6.1 g/dL
  gamma-GTP: 1.4 IU/L
[…], time 14 day
  TERMINAL_BW: 309.3 g
  APTT: 22.3 s
  Bas: 0%
  Eos: 0.4%
  Fbg: 209.2 mg/dL
  Hb: 14.2 g/dL
  Ht: 41.2%
  Lym: 82.2%
  MCH: 20.6 pg
  MCV: 59.8 fL
  Mono: 2.4%
  Neu: 13.6%
  PT: 12.2 s
  Plat: 128.7 x10_4/uL
  RBC: 689.4 x10_4/ul
  Ret: 4.7%
  WBC: 149.2 x10_2/uL
  KIDNEY_L: 1.3 g
  KIDNEY_R: 1.3 g
  KIDNEY_TOTAL: 2.7 g
  LIVER: 17.8 g
  ALP: 774.4 IU/L
  ALT: 38.6 IU/L
  AST: 62.8 IU/L
  BUN: 17.5 mg/dL
  CRE: 0.5 mg/dL
  Ca: 11 mg/dL
  Cl: 101 meq/L
  DBIL: 0.1 mg/dL
  GLC: 193.4 mg/dL
  IP: 7.2 mg/dL
  K: 3.9 meq/L
  LDH: 192 IU/L
  Na: 140.8 meq/L
  PL: 170.4 mg/dL
  RALB: 3.5 g/dL
  TBIL: 0.2 mg/dL
  TC: 89 mg/dL
  TP: 6.4 g/dL
  gamma-GTP: 0.6 IU/L
[…], time 28 day
  TERMINAL_BW: 374.6 g
  APTT: 22.9 s
  Bas: 0%
  Eos: 1%
  Fbg: 225.4 mg/dL
  Hb: 15.2 g/dL
  Ht: 43.4%
  Lym: 87.2%
  MCH: 19.6 pg
  MCV: 56 fL
  Mono: 2.2%
  Neu: 8.8%
  PT: 12.2 s
  Plat: 106.2 x10_4/uL
  RBC: 776.2 x10_4/ul
  Ret: 2.1%
  WBC: 142.7 x10_2/uL
  KIDNEY_L: 1.4 g
  KIDNEY_R: 1.4 g
  KIDNEY_TOTAL: 2.8 g
  LIVER: 19.5 g
  ALP: 555 IU/L
  ALT: 39.8 IU/L
  AST: 55 IU/L
  BUN: 20.4 mg/dL
  CRE: 0.5 mg/dL
  Ca: 10.6 mg/dL
  Cl: 101.4 meq/L
  DBIL: 0.09 mg/dL
  GLC: 226 mg/dL
  IP: 6.4 mg/dL
  K: 3.6 meq/L
  LDH: 218.2 IU/L
  Na: 140.6 meq/L
  PL: 180.8 mg/dL
  RALB: 3.7 g/dL
  TBIL: 0.1 mg/dL
  TC: 93.8 mg/dL
  TP: 6.5 g/dL
  gamma-GTP: 1.2 IU/L
